Measured values: patent US9265754B2, “Use of 1-{4-[1-(4-cyclohexyl-3-trifluoromethyl-benzyloxyimino)-ethyl]-2-ethyl-benzyl}-azetidine-3-carboxylic acid in treating symptoms associated with rett syndrome” (Novartis AG, priority 2007, dated 2016)

Experiments:
BDNF = assay: In vivo S1P receptor modulator induced BDNF production (Western blot of cortex); set-up: species or system rat; settings: female DA rats
Text: Shown on the y-axis is the relative intensity of BDNF signal of animals treated with FTY720 vs control animals that had received vehicle (i.e., ratio of signal from FTY720-treated rats divided by signal from vehicle-treated rats, n=3 rats/group). On the x axis, the first two bars come from the frontal cortex, the second two from the parietal cortex and in each case the white bar represents the vehicle treated animals and the black bar represents the FTY720 treated animals.
N=3 animals each were treated with either vehicle, 0.1 mg/kg/d FTY720, 0.3 mg/kg/d FTY720 or 1 mg/kg/d FTY720.
Female DA rats were treated for 9 days (5 days, 2 day pause, 4 days) with FTY720 p.o.
Expt 1: 0.3 mg/kg/d vs. vehicle.
One day after the last treatment, the rats were perfused with ice-cold PBS and different CNS regions were isolated.
Female DA rats were treated for 9 days (5 days, 2 day pause, 4 days) with FTY720 p.o. 0.1; 0.3 or 1 mg/kg/d vs vehicle

[1] = test system: patients with relapsing MS; assay: Phase II trial in relapsing MS: depressive symptoms by Beck Depression Inventory second edition (BDI-II); type: in vivo, human; settings: for BDI-II score, change from baseline during core study: 6 months core study
Method: In this study, depressive symptoms were assessed by means of the Beck Depression Inventory second edition (BDI-II).
Patients with relapsing MS (relapsing-remitting or secondary progressive) were randomized to receive placebo or FTY720 1.25 or 5 mg/day, for 6 months (the core study). At the end of this period, placebo-treated patients were re-randomized to one of the two FTY720 doses, while those originally randomized to FTY720 continued treatment at the same doses. After approximately 18-24 months, patients receiving FTY720 5 mg, were switched to 1.25 mg in view of evidence that the higher dose conferred no efficacy benefit over the lower dose.
The BDI-II was administered at baseline, and at 3 and 6 months during the core study and at 12 and 24 months during the extension phase (i.e. 6 and 18 months after the start of the extension phase). This is a 21-item self-report scale measuring various symptoms and attitudes associated with depression. Respondents rate depressive symptoms experienced during the past two weeks on a 4-point scale, coded 0 to 3 by increasing order of severity. A total score across all 21 items can be generated, with lower total scores indicating lower overall severity of depressive symptoms. BDI-II total scores of 14 or above are indicative of clinical depression. Ny reduction in the BDI-II score indicated an improvement in depression.
Of the 281 patients originally randomized to treatment, 255 completed the core study. BDI-II scores at baseline and 6 months were available in 239 patients.

[2] = test system: patients with relapsing MS; settings: cited from earlier work
[3] = 281 patients with relapsing MS, 6 months, 1.25 and 5 mg once daily

## CCCCCCCCc1ccc(CCC(N)(CO)CO)cc1 [FTY720, 2-amino-2-[2-(4-octylphenyl)ethyl]propane-1,3-diol]
BDNF; 9-day treatment, 0.3 mg/kg/d p.o., frontal and parietal cortex, FIG. 1
  BDNF in the cortex (relative intensity of BDNF signal vs vehicle): induction of BDNF
BDNF; 9-day treatment, 0.1, 0.3 or 1 mg/kg/d p.o., FIGS. 2A-2B
  BDNF in the cortex, multiple doses: induction of BDNF
[1]; 1.25 mg/day
  BDI-II score, change from baseline during core study: decreased from baseline
[1]; 1.25 mg/day, at 6 months
  change in BDI-II scores from baseline vs placebo-treated patients: significantly greater
[1]; 5.0 mg/day
  BDI-II score, change from baseline during core study: remained consistent
[1]; 1.25 vs 5.0 mg/day, 5% level
  difference in changes in BDI-II scores between the two doses: not significant
[2]; [3]
  reduction of annualized relapse rate compared with placebo: more than 50%
  reduction of gadolinium-enhanced MRI lesions compared with placebo: up to 80%
[2]; patients treated for up to 24 months
  low disease activity on MRI and relapses during dose-blinded extension phase: sustained
